This passage reports IC50 results from patent US10975080B2, “Compounds and compositions for inhibiting the activity of SHP2” (NOVARTIS AG, priority 2015, dated 2021).

The target of the experiment is SHP2 (Homo sapiens (Human), UniProt Q06124). Nature of the experiment: SHP2 Allosteric Inhibition Assay. Format: biochemical. Particulars: 0.5 nM SHP2 with 0.5 μM peptide IRS1_pY1172(dPEG8)pY1222; surrogate substrate DiFMUP; 25° C.; read-out: SHP2 IC50. The source says: SHP2 Allosteric Inhibition Assay
Sequence of SHP2 (Q06124 whole entry): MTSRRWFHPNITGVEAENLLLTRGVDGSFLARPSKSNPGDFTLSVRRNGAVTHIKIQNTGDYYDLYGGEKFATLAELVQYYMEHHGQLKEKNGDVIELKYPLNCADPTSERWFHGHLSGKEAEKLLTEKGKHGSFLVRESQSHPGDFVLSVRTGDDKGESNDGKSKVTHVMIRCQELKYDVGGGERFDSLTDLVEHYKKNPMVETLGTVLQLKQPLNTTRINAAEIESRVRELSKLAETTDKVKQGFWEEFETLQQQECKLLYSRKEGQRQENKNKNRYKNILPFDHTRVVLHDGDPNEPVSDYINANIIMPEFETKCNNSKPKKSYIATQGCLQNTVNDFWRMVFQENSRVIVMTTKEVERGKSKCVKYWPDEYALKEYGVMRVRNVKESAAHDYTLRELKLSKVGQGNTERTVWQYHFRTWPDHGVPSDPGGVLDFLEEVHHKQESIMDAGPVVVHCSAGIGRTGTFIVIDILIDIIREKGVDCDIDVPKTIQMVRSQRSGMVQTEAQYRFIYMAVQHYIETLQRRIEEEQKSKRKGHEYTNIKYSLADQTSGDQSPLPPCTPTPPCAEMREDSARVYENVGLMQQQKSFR
SHP2 is allosterically activated through binding of bis-tyrosyl-phosphorylated peptides to its Src Homology 2 (SH2) domains. The latter activation step leads to the release of the auto-inhibitory interface of SHP2, which in turn renders the SHP2 protein tyrosine phosphatase (PTP) active and available for substrate recognition and reaction catalysis. The catalytic activity of SHP2 was monitored using the surrogate substrate DiFMUP in a prompt fluorescence assay format.
After 30-60 minutes incubation at 25° C., the surrogate substrate DiFMUP (Invitrogen, cat #D6567) was added to the reaction and incubated at 25° C. for 30 minutes. […] The inhibitor dose response curves were analyzed using normalized IC50 regression curve fitting with control based normalization.
Take `Cn1c(N2CCC3(CC2)CC(F)(F)C[C@H]3N)nc2[nH]nc(-c3ccncc3)c2c1=O` [Example 51, (R)-6-(1-amino-3,3-difluoro-8-azaspiro[4.5]decan-8-yl)-5-methyl-3-(pyridin-4-yl)-1,5-dihydro-4H-pyrazolo[3,4-d]pyrimidin-4-one]: the IC50 was 14 nM.
With `C[C@@H]1OCC2(CCN(c3nc4[nH]nc(-c5ccc(N)nc5Cl)c4c(=O)n3C)CC2)[C@@H]1N` [Example 52, 3-(6-amino-2-chloropyridin-3-yl)-6-((3S,4S)-4-amino-3-methyl-2-oxa-8-azaspiro[4.5]decan-8-yl)-5-methyl-1,5-dihydro-4H-pyrazolo[3,4-d]pyrimidin-4-one], the IC50 was 23 nM.
For the molecule `Cc1nc(N)ccc1-c1n[nH]c2nc(N3CCC4(CC3)C[C@@H](C(F)(F)F)C[C@H]4N)n(C)c(=O)c12` [Example 53, 3-(6-amino-2-methylpyridin-3-yl)-6-((1R,3R)-1-amino-3-(trifluoromethyl)-8-azaspiro[4.5]decan-8-yl)-5-methyl-1,5-dihydro-4H-pyrazolo[3,4-d]pyrimidin-4-one], the IC50 came to 36 nM.
For the molecule `Cn1c(N2CCC3(CC2)C[C@@H](C(F)(F)F)C[C@H]3N)nc2[nH]nc(-c3ccncc3)c2c1=O` [Example 54, 6-((1R,3R)-1-amino-3-(trifluoromethyl)-8-azaspiro[4.5]decan-8-yl)-5-methyl-3-(pyridin-4-yl)-1,5-dihydro-4H-pyrazolo[3,4-d]pyrimidin-4-one], the IC50 is 21 nM.
Next, `C[C@@H]1OCC2(CCN(c3nc4[nH]nc(-c5cccc(N)c5)c4c(=O)n3C)CC2)[C@@H]1N` [Example 55, 6-((3S,4S)-4-amino-3-methyl-2-oxa-8-azaspiro[4.5]decan-8-yl)-3-(3-aminophenyl)-5-methyl-1,5-dihydro-4H-pyrazolo[3,4-d]pyrimidin-4-one]: 83 nM.
Regarding `C[C@@H]1OCC2(CCN(c3nc4[nH]nc(-c5ccc6c(c5)CCO6)c4c(=O)n3C)CC2)[C@@H]1N` [Example 56, 6-((3S,4S)-4-amino-3-methyl-2-oxa-8-azaspiro[4.5]decan-8-yl)-3-(2,3-dihydrobenzofuran-5-yl)-5-methyl-1,5-dihydro-4H-pyrazolo[3,4-d]pyrimidin-4-one], the concentration for half-maximal inhibition (IC50) stood at 95 nM.
On to `C[C@@H]1OCC2(CCN(c3nc4[nH]nc(-c5ccc(F)cc5)c4c(=O)n3C)CC2)[C@@H]1N` [Example 57, 6-((3S,4S)-4-amino-3-methyl-2-oxa-8-azaspiro[4.5]decan-8-yl)-3-(4-fluorophenyl)-5-methyl-1,5-dihydro-4H-pyrazolo[3,4-d]pyrimidin-4-one], for which the IC50 was found to be 11 nM.
Take `C[C@@H]1OCC2(CCN(c3nc4[nH]nc(-c5ccc(F)c(F)c5)c4c(=O)n3C)CC2)[C@@H]1N` [Example 58, 6-((3S,4S)-4-amino-3-methyl-2-oxa-8-azaspiro[4.5]decan-8-yl)-3-(3,4-difluorophenyl)-5-methyl-1,5-dihydro-4H-pyrazolo[3,4-d]pyrimidin-4-one]: the IC50 was found to be 11 nM.
Next, `COc1ccc(-c2n[nH]c3nc(N4CCC5(CC4)CO[C@@H](C)[C@H]5N)n(C)c(=O)c23)cc1F` [Example 59, 6-((3S,4S)-4-amino-3-methyl-2-oxa-8-azaspiro[4.5]decan-8-yl)-3-(3-fluoro-4-methoxyphenyl)-5-methyl-1,5-dihydro-4H-pyrazolo[3,4-d]pyrimidin-4-one]: 13 nM.
Next, `C[C@@H]1OCC2(CCN(c3nc4[nH]nc(-c5cccc(F)c5F)c4c(=O)n3C)CC2)[C@@H]1N` [Example 60, 6-((3S,4S)-4-amino-3-methyl-2-oxa-8-azaspiro[4.5]decan-8-yl)-3-(2,3-difluorophenyl)-5-methyl-1,5-dihydro-4H-pyrazolo[3,4-d]pyrimidin-4-one]: 13 nM; `C[C@@H]1OCC2(CCN(c3nc4[nH]nc(-c5cccc(F)c5)c4c(=O)n3C)CC2)[C@@H]1N` [Example 61, 6-((3S,4S)-4-amino-3-methyl-2-oxa-8-azaspiro[4.5]decan-8-yl)-3-(3-fluorophenyl)-5-methyl-1,5-dihydro-4H-pyrazolo[3,4-d]pyrimidin-4-one]: 14 nM.

Usually IC50 stands for the point on the concentration scale where inhibition reaches its midpoint.
